Measured values: patent publication US10174044B2, “Fused pyridines as kinase inhibitors” (BRISTOL-MYERS SQUIBB COMPANY, priority 2015, dated 2019)

Each compound was assayed against GST-Xa-hAAK1 (Homo sapiens (Human), UniProt Q2M2I8) (assay: AAK1 Kinase Assay). Conditions: bacterially expressed GST-Xa-hAAK1 3.5 nM; ATP 22 μM; fluoresceinated peptide substrate 1.5 μM; 3 hours at room temperature.
Type: biochemical
Procedure: The assays were performed in U-bottom 384-well plates. […] The reactions were initiated by the combination of bacterially expressed, GST-Xa-hAAK1 with substrates and test compounds. The reactions were incubated at room temperature for 3 hours and terminated by adding 60 μl of 35 mM EDTA buffer to each sample. The reactions were analyzed on the Caliper LabChip 3000 (Caliper, Hopkinton, Mass.) by electrophoretic separation of the fluorescent substrate and phosphorylated product. […] Compounds were dissolved at 10 mM in dimethylsulfoxide (DMSO) and evaluated at eleven concentrations. IC50 values were derived by non-linear regression analysis.

Chain of GST-Xa-hAAK1 (Q2M2I8 whole entry): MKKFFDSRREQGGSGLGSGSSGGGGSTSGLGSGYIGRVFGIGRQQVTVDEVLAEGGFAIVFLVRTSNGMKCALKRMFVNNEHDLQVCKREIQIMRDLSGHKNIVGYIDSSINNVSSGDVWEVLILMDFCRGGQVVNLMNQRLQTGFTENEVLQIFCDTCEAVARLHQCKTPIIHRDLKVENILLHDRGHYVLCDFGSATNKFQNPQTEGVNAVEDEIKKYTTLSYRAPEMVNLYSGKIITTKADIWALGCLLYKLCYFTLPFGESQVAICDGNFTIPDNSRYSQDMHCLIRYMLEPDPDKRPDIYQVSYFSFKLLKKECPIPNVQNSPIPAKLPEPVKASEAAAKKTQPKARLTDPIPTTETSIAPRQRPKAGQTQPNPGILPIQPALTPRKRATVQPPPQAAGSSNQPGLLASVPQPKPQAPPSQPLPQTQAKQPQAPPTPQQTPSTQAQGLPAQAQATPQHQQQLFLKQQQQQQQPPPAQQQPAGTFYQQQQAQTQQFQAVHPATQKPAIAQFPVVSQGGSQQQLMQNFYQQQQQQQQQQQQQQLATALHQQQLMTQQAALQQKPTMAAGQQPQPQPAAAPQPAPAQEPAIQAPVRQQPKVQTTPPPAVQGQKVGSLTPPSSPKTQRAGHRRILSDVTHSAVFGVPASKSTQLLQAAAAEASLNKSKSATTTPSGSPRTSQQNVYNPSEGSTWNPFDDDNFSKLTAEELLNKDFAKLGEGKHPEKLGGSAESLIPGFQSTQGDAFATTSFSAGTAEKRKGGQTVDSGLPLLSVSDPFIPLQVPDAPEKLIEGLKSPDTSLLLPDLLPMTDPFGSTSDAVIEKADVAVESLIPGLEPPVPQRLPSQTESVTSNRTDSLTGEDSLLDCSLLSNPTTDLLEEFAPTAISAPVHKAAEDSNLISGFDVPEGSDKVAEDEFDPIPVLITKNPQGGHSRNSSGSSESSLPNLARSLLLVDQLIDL

Compound | IC50 [nM]
CC(C)CC(C)(N)COc1ccc2c(c1)COc1cnc(NCC(F)(F)F)cc1-2 (stereo not shown) [Example 42, 8-((2-amino-2,4-dimethylpentyl)oxy)-N-(2,2,2-trifluoroethyl)-6H-isochromeno[3,4-c]pyridin-2-amine] | 88
CC(C)C[C@](C)(N)COc1ccc2c(c1)COc1cnc(NCC(F)(F)F)cc1-2 [Example 43, (S)-8-((2-amino-2,4-dimethylpentyl)oxy)-N-(2,2,2-trifluoroethyl)-6H-isochromeno[3,4-c]pyridin-2-amine] | 56
CC(C)C[C@@](C)(N)COc1ccc2c(c1)COc1cnc(NCC(F)(F)F)cc1-2 [Example 44, (R)-8-((2-amino-2,4-dimethylpentyl)oxy)-N-(2,2,2-trifluoroethyl)-6H-isochromeno[3,4-c]pyridin-2-amine] | 181
CCOC(=O)Nc1nc(Cl)c2c(c1Cl)-c1ccc(OC[C@@](C)(N)CC(C)C)cc1CO2 [Example 46, (S)-ethyl (8-((2-amino-2,4-dimethylpentyl)oxy)-1,4-dichloro-6H-isochromeno[3,4-c]pyridin-2-yl)carbamate] | 45
CCOC(=O)Nc1ncc2c(c1Cl)-c1ccc(OC[C@@](C)(N)CC(C)C)cc1CO2 [Example 47, (S)-ethyl (8-((2-amino-2,4-dimethylpentyl)oxy)-1-chloro-6H-isochromeno[3,4-c]pyridin-2-yl)carbamate] | 26
CC(C)C[C@](C)(N)COc1ccc2c(c1)COc1cnc(C(F)F)cc1-2 [Example 48, (S)-1-((2-(difluoromethyl)-6H-isochromeno[3,4-c]pyridin-8-yl)oxy)-2,4-dimethylpentan-2-amine] | 13
Cc1cc2c(cn1)OCc1cc(OC[C@@](C)(N)CC(C)C)ccc1-2 [Example 51, (S)-2,4-dimethyl-1-((2-methyl-6H-isochromeno[3,4-c]pyridin-8-yl)oxy)pentan-2-amine] | 121
CC(C)C[C@](C)(N)COc1ccc2c(c1)COc1cnc(NS(C)(=O)=O)cc1-2 [Example 55, (S)—N-(8-((2-amino-2,4-dimethylpentyl)oxy)-6H-isochromeno[3,4-c]pyridin-2-yl)methanesulfonamide] | 123
CC(C)C[C@](C)(N)COc1ccc2c(c1)COc1cnc(NS(=O)(=O)C3CC3)cc1-2 [Example 56, (S)—N-(8-((2-amino-2,4-dimethylpentyl)oxy)-6H-isochromeno[3,4-c]pyridin-2-yl)cyclopropanesulfonamide] | 37
CC(C)C[C@](C)(N)COc1ccc2c(c1)COc1cnc(F)cc1-2 [Example 57, (S)-1-((2-fluoro-6H-isochromeno[3,4-c]pyridin-8-yl)oxy)-2,4-dimethylpentan-2-amine] | 34
COC(=O)Nc1ncc2c(c1Cl)-c1cc(F)c(OC[C@@](C)(N)CC(C)C)cc1CO2 [Example 58, (S)-methyl (8-((2-amino-2,4-dimethylpentyl)oxy)-1-chloro-9-fluoro-6H-isochromeno[3,4-c]pyridin-2-yl)carbamate] | 18
CC(C)C[C@](C)(N)COc1ccc2c(c1)COc1cnc(S(C)(=O)=O)cc1-2 [Example 59, (S)-2,4-dimethyl-1-((2-(methylsulfonyl)-6H-isochromeno[3,4-c]pyridin-8-yl)oxy)pentan-2-amine] | 184
COC(=O)Nc1nc(Cl)c2c(c1Cl)-c1ccc(OC[C@@](C)(N)CC(C)C)c(Cl)c1CO2 [Example 63, (S)-methyl (8-((2-amino-2,4-dimethylpentyl)oxy)-1,4,7-trichloro-6H-isochromeno[3,4-c]pyridin-2-yl)carbamate] | 15

Stronger by IC50, values ahead:

IC50 [nM] | Compound
1.3 | CCOC(=O)Nc1cc2c(cn1)OCc1cc(OC[C@](C)(N)CC(C)C)ccc1-2 [Example 40, (R)-ethyl (8-((2-amino-2,4-dimethylpentyl)oxy)-6H-isochromeno[3,4-c]pyridin-2-yl)carbamate]
0.62 | CCOC(=O)Nc1cc2c(cn1)OCc1cc(OC[C@@](C)(N)CC(C)C)ccc1-2 [Example 41, (S)-ethyl (8-((2-amino-2,4-dimethylpentyl)oxy)-6H-isochromeno[3,4-c]pyridin-2-yl)carbamate]
0.91 | COC(=O)Nc1cc2c(cn1)OCc1c-2ccc(OC[C@@](C)(N)CC(C)C)c1F [Example 45, (S)-methyl (8-((2-amino-2,4-dimethylpentyl)oxy)-7-fluoro-6H-isochromeno[3,4-c]pyridin-2-yl)carbamate]
5.4 | COC(=O)Nc1cc2c(cn1)OCc1cc(OC[C@@](C)(N)CC(C)C)c(F)cc1-2 [Example 49, (S)-methyl (8-((2-amino-2,4-dimethylpentyl)oxy)-9-fluoro-6H-isochromeno[3,4-c]pyridin-2-yl)carbamate]
11 | Cc1nccc2c1OCc1cc(OC[C@@](C)(N)CC(C)C)ccc1-2 [Example 50, (S)-2,4-dimethyl-1-((4-methyl-6H-isochromeno[3,4-c]pyridin-8-yl)oxy)pentan-2-amine]
2.2 | CC(C)C[C@](C)(N)COc1ccc2c(c1)COc1c-2ccnc1Cl [Example 52, (S)-1-((4-chloro-6H-isochromeno[3,4-c]pyridin-8-yl)oxy)-2,4-dimethylpentan-2-amine]
4.4 | CC(C)C[C@](C)(N)COc1ccc2c(c1)COc1cnc(N)cc1-2 [Example 53, (S)-8-((2-amino-2,4-dimethylpentyl)oxy)-6H-isochromeno[3,4-c]pyridin-2-amine]
2.1 | CC(C)C[C@](C)(N)COc1ccc2c(c1)COc1cnc(NC(=O)OC(C)C)cc1-2 [Example 54, (S)-isopropyl (8-((2-amino-2,4-dimethylpentyl)oxy)-6H-isochromeno[3,4-c]pyridin-2-yl)carbamate]
0.74 | CC(C)C[C@](C)(N)COc1ccc2c(c1)COc1c-2ccnc1N [Example 60, (S)-8-((2-amino-2,4-dimethylpentyl)oxy)-6H-isochromeno[3,4-c]pyridin-4-amine]
0.41 | CC(C)C[C@](C)(N)COc1ccc2c(c1Cl)COc1cnc(N)cc1-2 [Example 61, (S)-8-((2-amino-2,4-dimethylpentyl)oxy)-7-chloro-6H-isochromeno[3,4-c]pyridin-2-amine]
0.81 | COC(=O)Nc1cc2c(cn1)OCc1c-2ccc(OC[C@@](C)(N)CC(C)C)c1Cl [Example 62, (S)-methyl (8-((2-amino-2,4-dimethylpentyl)oxy)-7-chloro-6H-isochromeno[3,4-c]pyridin-2-yl)carbamate]
7.8 | COC(=O)Nc1nccc2c1OCc1cc(OC[C@@](C)(N)CC(C)C)ccc1-2 [Example 64, (S)-methyl (8-((2-amino-2,4-dimethylpentyl)oxy)-6H-isochromeno[3,4-c]pyridin-4-yl)carbamate]
